Data from publication PMC3705398 (Marine Drugs, 2013).
“Also recorded” adds a separate entry of the source. Where two headings read alike, the source gives them in different places. Where a SMILES comes first, the peptide text is derived from it.

Columns and labels:
adult male ICR mice [1] = settings: mouse, in vivo
[2] = target: T1, CaV2.2 (N-type) calcium channels in rat superior cervical ganglion (SCG) neurons (Rattus norvegicus, UniProt Q02294); test: cell-based; type: cell-based, rat (Wistar)
T1 construct: SCG neurons are the most used native preparation to assess CaV2.2 (N-type) channel function; endogenous in cells

adult male ICR mice [3] = settings: mouse, in vivo; remark: listed apart in the source
[4] = read-out: inhibition of calcium current

T1 sequence (Q02294 whole entry): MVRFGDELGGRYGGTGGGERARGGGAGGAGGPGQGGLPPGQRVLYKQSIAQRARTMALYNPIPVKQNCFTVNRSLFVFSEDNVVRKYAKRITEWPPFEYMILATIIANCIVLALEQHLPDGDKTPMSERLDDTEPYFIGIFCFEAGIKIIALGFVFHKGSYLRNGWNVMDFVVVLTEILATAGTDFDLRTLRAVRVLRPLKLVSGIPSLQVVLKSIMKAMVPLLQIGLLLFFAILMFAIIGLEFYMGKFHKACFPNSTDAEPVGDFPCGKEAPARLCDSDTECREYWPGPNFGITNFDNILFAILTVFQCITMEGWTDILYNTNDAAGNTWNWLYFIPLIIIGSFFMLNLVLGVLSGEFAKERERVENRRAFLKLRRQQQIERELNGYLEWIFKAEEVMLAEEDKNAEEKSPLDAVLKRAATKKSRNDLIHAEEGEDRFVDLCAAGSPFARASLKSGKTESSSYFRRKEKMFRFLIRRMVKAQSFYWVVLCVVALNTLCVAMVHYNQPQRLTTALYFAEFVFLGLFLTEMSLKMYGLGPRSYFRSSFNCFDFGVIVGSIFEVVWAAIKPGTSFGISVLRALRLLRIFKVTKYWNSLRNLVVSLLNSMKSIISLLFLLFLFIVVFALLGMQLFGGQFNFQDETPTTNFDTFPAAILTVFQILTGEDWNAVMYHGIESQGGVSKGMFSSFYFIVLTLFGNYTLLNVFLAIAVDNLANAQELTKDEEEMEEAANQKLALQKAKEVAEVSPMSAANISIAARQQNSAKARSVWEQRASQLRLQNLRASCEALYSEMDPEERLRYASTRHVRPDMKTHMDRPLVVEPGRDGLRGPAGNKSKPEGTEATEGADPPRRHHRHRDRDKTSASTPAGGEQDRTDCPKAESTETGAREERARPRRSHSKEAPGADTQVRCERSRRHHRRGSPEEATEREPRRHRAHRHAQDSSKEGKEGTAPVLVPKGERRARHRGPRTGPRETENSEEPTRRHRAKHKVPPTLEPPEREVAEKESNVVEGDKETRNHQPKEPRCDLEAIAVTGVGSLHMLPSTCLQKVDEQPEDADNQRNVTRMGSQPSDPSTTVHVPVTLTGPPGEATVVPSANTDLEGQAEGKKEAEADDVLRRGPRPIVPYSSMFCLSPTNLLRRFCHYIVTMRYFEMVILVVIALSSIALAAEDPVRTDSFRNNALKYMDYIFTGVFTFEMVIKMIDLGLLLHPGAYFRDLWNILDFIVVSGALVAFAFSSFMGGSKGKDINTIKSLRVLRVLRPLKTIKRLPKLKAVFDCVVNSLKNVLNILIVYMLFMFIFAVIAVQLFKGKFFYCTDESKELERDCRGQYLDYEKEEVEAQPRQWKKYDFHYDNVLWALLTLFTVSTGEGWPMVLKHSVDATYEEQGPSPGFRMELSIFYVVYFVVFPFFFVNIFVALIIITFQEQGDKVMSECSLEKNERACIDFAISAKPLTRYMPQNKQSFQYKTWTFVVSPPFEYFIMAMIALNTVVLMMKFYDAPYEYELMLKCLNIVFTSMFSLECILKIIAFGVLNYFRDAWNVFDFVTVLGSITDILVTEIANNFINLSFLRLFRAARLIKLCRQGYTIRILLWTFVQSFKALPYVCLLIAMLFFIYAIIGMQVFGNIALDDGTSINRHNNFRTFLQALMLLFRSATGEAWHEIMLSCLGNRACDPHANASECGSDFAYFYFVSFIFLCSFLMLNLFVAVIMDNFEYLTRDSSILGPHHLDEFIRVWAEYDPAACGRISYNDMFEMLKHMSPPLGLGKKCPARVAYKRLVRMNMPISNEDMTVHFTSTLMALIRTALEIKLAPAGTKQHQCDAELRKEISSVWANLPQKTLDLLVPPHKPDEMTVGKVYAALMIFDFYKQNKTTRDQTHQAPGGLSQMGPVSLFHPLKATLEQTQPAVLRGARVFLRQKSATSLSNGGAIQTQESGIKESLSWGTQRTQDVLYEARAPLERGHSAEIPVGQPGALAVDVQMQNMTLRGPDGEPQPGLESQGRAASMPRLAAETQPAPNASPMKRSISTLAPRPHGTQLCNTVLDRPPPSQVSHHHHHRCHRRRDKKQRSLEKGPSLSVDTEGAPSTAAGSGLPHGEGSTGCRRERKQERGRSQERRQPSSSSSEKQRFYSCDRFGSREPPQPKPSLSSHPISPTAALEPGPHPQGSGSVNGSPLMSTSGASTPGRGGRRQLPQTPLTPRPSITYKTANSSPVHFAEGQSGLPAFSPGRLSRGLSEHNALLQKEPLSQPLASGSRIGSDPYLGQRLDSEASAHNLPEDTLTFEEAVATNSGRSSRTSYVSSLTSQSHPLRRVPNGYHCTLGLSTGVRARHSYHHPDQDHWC
T1 sequence (P54290 25-1091 partner): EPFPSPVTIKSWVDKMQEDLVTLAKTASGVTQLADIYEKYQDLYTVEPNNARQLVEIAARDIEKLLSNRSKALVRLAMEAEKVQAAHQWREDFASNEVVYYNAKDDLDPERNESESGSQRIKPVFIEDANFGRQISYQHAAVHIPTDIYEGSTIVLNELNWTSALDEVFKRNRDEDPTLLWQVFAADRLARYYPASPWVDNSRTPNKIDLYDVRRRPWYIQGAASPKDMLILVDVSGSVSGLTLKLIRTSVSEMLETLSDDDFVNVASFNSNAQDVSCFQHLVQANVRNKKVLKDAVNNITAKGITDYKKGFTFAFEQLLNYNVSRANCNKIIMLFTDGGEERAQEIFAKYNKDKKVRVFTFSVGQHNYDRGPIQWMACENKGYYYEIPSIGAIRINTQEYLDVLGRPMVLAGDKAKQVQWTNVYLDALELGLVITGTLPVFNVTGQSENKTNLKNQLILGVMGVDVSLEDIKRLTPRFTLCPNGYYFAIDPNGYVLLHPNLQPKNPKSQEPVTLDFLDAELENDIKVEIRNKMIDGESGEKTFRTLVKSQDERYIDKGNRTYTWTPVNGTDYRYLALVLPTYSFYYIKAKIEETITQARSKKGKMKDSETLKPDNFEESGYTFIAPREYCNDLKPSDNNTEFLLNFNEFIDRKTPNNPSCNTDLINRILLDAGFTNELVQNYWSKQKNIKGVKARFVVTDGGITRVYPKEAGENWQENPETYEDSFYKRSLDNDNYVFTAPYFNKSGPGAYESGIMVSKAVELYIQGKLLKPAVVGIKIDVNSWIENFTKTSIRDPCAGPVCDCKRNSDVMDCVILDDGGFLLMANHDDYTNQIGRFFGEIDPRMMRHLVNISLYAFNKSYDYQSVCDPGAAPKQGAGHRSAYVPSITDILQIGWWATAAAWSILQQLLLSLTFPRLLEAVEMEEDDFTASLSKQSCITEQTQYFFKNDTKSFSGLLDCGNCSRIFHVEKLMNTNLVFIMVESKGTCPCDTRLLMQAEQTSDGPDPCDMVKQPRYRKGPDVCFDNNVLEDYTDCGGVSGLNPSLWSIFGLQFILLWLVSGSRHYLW
T1 sequence (P54287 whole entry partner): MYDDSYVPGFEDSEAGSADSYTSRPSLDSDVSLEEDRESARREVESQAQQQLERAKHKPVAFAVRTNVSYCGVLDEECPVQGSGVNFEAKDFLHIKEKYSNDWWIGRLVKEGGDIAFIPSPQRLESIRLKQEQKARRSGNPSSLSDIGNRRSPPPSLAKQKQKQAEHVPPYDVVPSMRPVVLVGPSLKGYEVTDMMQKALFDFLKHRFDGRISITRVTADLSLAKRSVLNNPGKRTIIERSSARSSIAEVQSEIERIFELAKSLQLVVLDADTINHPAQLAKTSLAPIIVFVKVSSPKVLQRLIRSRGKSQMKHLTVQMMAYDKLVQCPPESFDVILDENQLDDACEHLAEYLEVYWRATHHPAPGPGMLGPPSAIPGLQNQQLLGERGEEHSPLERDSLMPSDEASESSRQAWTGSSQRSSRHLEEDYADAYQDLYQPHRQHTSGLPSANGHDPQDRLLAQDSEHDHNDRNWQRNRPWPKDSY

Structure (SMILES): CSCC[C@H](NC(=O)[C@H](CC(C)C)NC(=O)[C@H](CCCNC(=N)N)NC(=O)[C@H](CO)NC(=O)CNC(=O)[C@H](CCCCN)NC(=O)[C@H](CO)NC(=O)[C@H](CC(C)C)NC(=O)[C@H](CS)NC(=O)[C@H](Cc1ccccc1)NC(=O)[C@H](CCC(=O)O)NC(=O)[C@H](CCCCN)NC(=O)[C@@H](NC(=O)[C@H](CO)NC(=O)[C@H](CS)NC(=O)[C@H](CO)NC(=O)[C@H](CO)NC(=O)[C@H](CS)NC(=O)[C@H](CO)NC(=O)[C@H](CCC(N)=O)NC(=O)CNC(=O)[C@H](CCCCN)NC(=O)[C@@H](N)CS)[C@@H](C)O)C(=O)N[C@@H](Cc1ccc(O)cc1)C(=O)N[C@@H](CC(=O)O)C(=O)N[C@@H](CS)C(=O)N[C@@H](CS)C(=O)N[C@H](C(=O)NCC(=O)N[C@@H](CO)C(=O)N[C@@H](CS)C(=O)N[C@@H](CS)C(=O)NCC(=O)N[C@H](C(=O)N[C@@H](CCCCN)C(=O)N[C@H](C(=O)N[C@@H](C)C(=O)NCC(=O)N[C@H](C(=O)N[C@H](C(=O)O)[C@@H](C)O)C(C)C)[C@@H](C)O)C(C)C)[C@@H](C)O [RsXXIVA] (H-CKGQSCSSCSTKEFCLSKGSRLMYDCCTGSCCGVKTAGVT-OH)
- analgesic effect in hot-plate test (in words) compared with control (PBS) (adult male ICR mice [1]): analgesic effect in acute thermal pain at 30 and 45 min post-injection; also recorded: significantly better than the control group (p < 0.05)
- CaV2.2 current before restoration (under toxin) [2]: −442.9 ± 213.8 pA
- CaV2.2 current restored after toxin washout [2]: −798.2 ± 313.4 pA
- Hill coefficient of dose-response for CaV2.2 current inhibition [2]: 0.94
- affinity for CaV2.2 (in words) [2]: low affinity for CaV2.2
- reversibility of CaV2.2 current inhibition after washing [2]: partially reversed after washing; also recorded: partially reversible; also recorded: the inhibition of the CaV2.2 channel current occurred reversibly
- time to inhibit CaV2.2 current [2]: less than 4 s
- inhibition at 0.03 µM [2, 4]: 1.6 ± 0.1%
- inhibition at 0.3 µM [2, 4]: 12 ± 0.5%
- inhibition at 3 µM [2, 4]: 58.1 ± 2.6%
- inhibition at 24 µM [2, 4]: 97.9 ± 0.5%
- inhibition at 3 µM ([2]; read-out: percentage of inhibition compared to the block with 100 μM Cd2+): 58.1%
- hind paw licking in formalin test (in words) compared with control group (adult male ICR mice [3]): significantly reduced the hind paw licking during both phase 1 (Figure 6A) and phase 2 (Figure 6B)
